According to ChEMBL document CHEMBL3045835, “Comparative study of conventional and microwave-assisted synthesis of some Schiff bases and their potential as antimicrobial agents” (2012):
≈ marks a conversion by molar mass, not a printed value.

Assays:
Type in all cases: functional
Pseudomonas fluorescens [1] = assay: Antibacterial activity against Pseudomonas fluorescens MTCC 2421 after 24 hr by broth dilution method; conditions: MTCC 2421, 24 h
Pseudomonas fluorescens [2] = assay: Antibacterial activity against Pseudomonas fluorescens MTCC 2421 at 500 ug/ml after 18 hr by cup-plate method; conditions: MTCC 2421, 18 h, read-out: DIZ
Pseudomonas aeruginosa [3] = assay: Antibacterial activity against Pseudomonas aeruginosa MTCC 424 after 24 hr by broth dilution method; conditions: MTCC 424, 24 h
Escherichia coli [4] = assay: Antibacterial activity against Escherichia coli MTCC 1573 at 1500 ug/ml after 18 hr by cup-plate method; conditions: MTCC 1573, 18 h, read-out: DIZ
Aspergillus niger [5] = assay: Antifungal activity against Aspergillus niger MTCC 2546 at 100 ug/ml after 18 hr by cup-plate method; conditions: MTCC 2546, 18 h, read-out: DIZ
Micrococcus luteus [6] = assay: Antibacterial activity against Micrococcus luteus MTCC 1538 at 200 ug/ml after 18 hr by cup-plate method; conditions: MTCC 1538, 18 h, read-out: DIZ
Staphylococcus aureus [7] = assay: Antibacterial activity against Staphylococcus aureus MTCC 1430 at 200 ug/ml after 18 hr by cup-plate method; conditions: MTCC 1430, 18 h, read-out: DIZ
Penicillium chrysogenum [8] = assay: Antifungal activity against Penicillium chrysogenum MTCC 161 at 1500 ug/ml after 18 hr by cup-plate method; conditions: MTCC 161, 18 h, read-out: DIZ
Pseudomonas aeruginosa [9] = assay: Antibacterial activity against Pseudomonas aeruginosa MTCC 424 at 100 ug/ml after 18 hr by cup-plate method; conditions: MTCC 424, 18 h, read-out: DIZ
Micrococcus luteus [10] = assay: Antibacterial activity against Micrococcus luteus MTCC 1538 at 100 ug/ml after 18 hr by cup-plate method; conditions: MTCC 1538, 18 h, read-out: DIZ
Penicillium chrysogenum [11] = assay: Antifungal activity against Penicillium chrysogenum MTCC 161 at 1000 ug/ml after 18 hr by cup-plate method; conditions: MTCC 161, 18 h, read-out: DIZ
Pseudomonas fluorescens [12] = assay: Antibacterial activity against Pseudomonas fluorescens MTCC 2421 at 200 ug/ml after 18 hr by cup-plate method; conditions: MTCC 2421, 18 h, read-out: DIZ
Aspergillus niger [13] = assay: Antifungal activity against Aspergillus niger MTCC 2546 at 200 ug/ml after 18 hr by cup-plate method; conditions: MTCC 2546, 18 h, read-out: DIZ
Bacillus pumilus [14] = assay: Antibacterial activity against Bacillus pumilus MTCC 1456 after 24 hr by broth dilution method; conditions: MTCC 1456, 24 h
Bacillus pumilus [15] = assay: Antibacterial activity against Bacillus pumilus MTCC 1456 at 500 ug/ml after 18 hr by cup-plate method; conditions: MTCC 1456, 18 h, read-out: DIZ
Bacillus subtilis [16] = assay: Antibacterial activity against Bacillus subtilis MTCC 441 at 200 ug/ml after 18 hr by cup plate method; conditions: MTCC 441, 18 h, read-out: DIZ
Bacillus subtilis [17] = assay: Antibacterial activity against Bacillus subtilis MTCC 441 at 100 ug/ml after 18 hr by cup plate method; conditions: MTCC 441, 18 h, read-out: DIZ
Micrococcus luteus [18] = assay: Antibacterial activity against Micrococcus luteus MTCC 1538 at 500 ug/ml after 18 hr by cup-plate method; conditions: MTCC 1538, 18 h, read-out: DIZ
Escherichia coli [19] = assay: Antibacterial activity against Escherichia coli MTCC 1573 at 100 ug/ml after 18 hr by cup-plate method; conditions: MTCC 1573, 18 h, read-out: DIZ
Penicillium chrysogenum [20] = assay: Antifungal activity against Penicillium chrysogenum MTCC 161 at 100 ug/ml after 18 hr by cup-plate method; conditions: MTCC 161, 18 h, read-out: DIZ
Bacillus pumilus [21] = assay: Antibacterial activity against Bacillus pumilus MTCC 1456 at 1000 ug/ml after 18 hr by cup-plate method; conditions: MTCC 1456, 18 h, read-out: DIZ
Staphylococcus aureus [22] = assay: Antibacterial activity against Staphylococcus aureus MTCC 1430 at 1500 ug/ml after 18 hr by cup-plate method; conditions: MTCC 1430, 18 h, read-out: DIZ
Aspergillus niger [23] = assay: Antifungal activity against Aspergillus niger MTCC 2546 at 500 ug/ml after 18 hr by cup-plate method; conditions: MTCC 2546, 18 h, read-out: DIZ
Pseudomonas aeruginosa [24] = assay: Antibacterial activity against Pseudomonas aeruginosa MTCC 424 at 200 ug/ml after 18 hr by cup-plate method; conditions: MTCC 424, 18 h, read-out: DIZ
Staphylococcus aureus [25] = assay: Antibacterial activity against Staphylococcus aureus MTCC 1430 at 100 ug/ml after 18 hr by cup-plate method; conditions: MTCC 1430, 18 h, read-out: DIZ
Staphylococcus aureus [26] = assay: Antibacterial activity against Staphylococcus aureus MTCC 1430 at 500 ug/ml after 18 hr by cup-plate method; conditions: MTCC 1430, 18 h, read-out: DIZ
Bacillus subtilis [27] = assay: Antibacterial activity against Bacillus subtilis MTCC 441 at 1000 ug/ml after 18 hr by cup plate method; conditions: MTCC 441, 18 h, read-out: DIZ

SMILES: C(=N/c1nc[nH]n1)/c1cccc2ccccc12
- MIC (Pseudomonas fluorescens [1]): 300 µg/mL (≈ 1350 µM)
- zone of inhibition at 500 µg/mL (Pseudomonas fluorescens [2]): 19 mm
- MIC (Pseudomonas aeruginosa [3]): 200 µg/mL (≈ 900 µM)
- zone of inhibition at 1500 µg/mL (Escherichia coli [4]): 25 mm
- zone of inhibition at 100 µg/mL (Aspergillus niger [5]): 16 mm
- zone of inhibition at 200 µg/mL (Micrococcus luteus [6]): 15 mm
- zone of inhibition at 200 µg/mL (Staphylococcus aureus [7]): 13 mm
- zone of inhibition at 1500 µg/mL (Penicillium chrysogenum [8]): 24 mm
- zone of inhibition at 100 µg/mL (Pseudomonas aeruginosa [9]): 17 mm
- zone of inhibition at 100 µg/mL (Micrococcus luteus [10]): 12 mm
- zone of inhibition at 1000 µg/mL (Penicillium chrysogenum [11]): 21 mm
- zone of inhibition at 200 µg/mL (Pseudomonas fluorescens [12]): 16 mm
- zone of inhibition at 200 µg/mL (Aspergillus niger [13]): 17 mm
- MIC (Bacillus pumilus [14]): 300 µg/mL (≈ 1350 µM)
- zone of inhibition at 500 µg/mL (Bacillus pumilus [15]): 17 mm
- zone of inhibition at 200 µg/mL (Bacillus subtilis [16]): 16 mm
- zone of inhibition at 100 µg/mL (Bacillus subtilis [17]): 15 mm
- zone of inhibition at 500 µg/mL (Micrococcus luteus [18]): 18 mm
- zone of inhibition at 100 µg/mL (Escherichia coli [19]): 17 mm
- zone of inhibition at 100 µg/mL (Penicillium chrysogenum [20]): 17 mm
- zone of inhibition at 1000 µg/mL (Bacillus pumilus [21]): 18 mm
- zone of inhibition at 1500 µg/mL (Staphylococcus aureus [22]): 18 mm
- zone of inhibition at 500 µg/mL (Aspergillus niger [23]): 18 mm
- zone of inhibition at 200 µg/mL (Pseudomonas aeruginosa [24]): 18 mm
- zone of inhibition at 100 µg/mL (Staphylococcus aureus [25]): 12 mm
- zone of inhibition at 500 µg/mL (Staphylococcus aureus [26]): 14 mm
- zone of inhibition at 1000 µg/mL (Bacillus subtilis [27]): 19 mm
